In patent publication US6545002B1 (University of Virginia Patent Foundation, priority 1999, dated 2003):
Like-named read-outs stand apart in the source and are kept apart here.

How the values were obtained:
[1] = target: T1, human A2B receptors (hA2B) (Homo sapiens, UniProt P29275); test: Radioligand binding ([125I]ABOPX / [3H]ZM241385) at human A2B receptors expressed in HEK-293 cells; settings: for Ki: read-out: hA2B Ki or IC50
T1 construct: expressed in transfected cells; host or cells: HEK-293 (HEK-A2B, G418-selected)
T1 sequence (P29275 1-332): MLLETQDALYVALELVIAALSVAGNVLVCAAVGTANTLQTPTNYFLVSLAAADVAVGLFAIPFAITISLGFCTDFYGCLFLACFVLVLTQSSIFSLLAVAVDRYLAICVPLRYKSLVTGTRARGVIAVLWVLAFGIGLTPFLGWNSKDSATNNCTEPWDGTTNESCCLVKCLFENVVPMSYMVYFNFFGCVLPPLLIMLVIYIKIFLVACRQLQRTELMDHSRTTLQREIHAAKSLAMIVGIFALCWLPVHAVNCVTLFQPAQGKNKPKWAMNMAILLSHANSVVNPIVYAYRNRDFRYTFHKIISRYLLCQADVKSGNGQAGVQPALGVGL

human A3 receptors (hA3) = target: T2, human A3 receptors (hA3) (Homo sapiens, UniProt P0DMS8); test: Displacement of [125I]ABA binding at human A3 receptors expressed in HEK-293 cells; settings: read-out: hA3 Ki or IC50
T2 construct: expressed in transfected cells; host or cells: HEK-293
T2 sequence (P0DMS8 1-318): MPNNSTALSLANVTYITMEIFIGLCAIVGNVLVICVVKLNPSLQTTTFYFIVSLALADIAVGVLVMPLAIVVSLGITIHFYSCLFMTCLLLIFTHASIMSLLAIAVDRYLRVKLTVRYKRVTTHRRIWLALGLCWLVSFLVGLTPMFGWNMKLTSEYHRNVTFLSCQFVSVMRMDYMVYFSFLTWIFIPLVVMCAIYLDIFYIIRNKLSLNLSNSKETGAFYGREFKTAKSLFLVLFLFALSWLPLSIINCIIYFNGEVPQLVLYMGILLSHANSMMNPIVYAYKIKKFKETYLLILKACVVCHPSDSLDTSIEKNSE

rat A2A receptors (rA2A) = target: T3, rat A2A receptors (rA2A) (Rattus norvegicus, UniProt P30543); test: Displacement of [3H]CGS 21680 binding in rat striatal membranes; settings: for Ki: read-out: rA2A Ki or IC50
T3 construct: to A2A receptors from rat striatal membranes was performed as described; from tissue; host or cells: rat striatal membranes
T3 sequence (P30543 whole entry): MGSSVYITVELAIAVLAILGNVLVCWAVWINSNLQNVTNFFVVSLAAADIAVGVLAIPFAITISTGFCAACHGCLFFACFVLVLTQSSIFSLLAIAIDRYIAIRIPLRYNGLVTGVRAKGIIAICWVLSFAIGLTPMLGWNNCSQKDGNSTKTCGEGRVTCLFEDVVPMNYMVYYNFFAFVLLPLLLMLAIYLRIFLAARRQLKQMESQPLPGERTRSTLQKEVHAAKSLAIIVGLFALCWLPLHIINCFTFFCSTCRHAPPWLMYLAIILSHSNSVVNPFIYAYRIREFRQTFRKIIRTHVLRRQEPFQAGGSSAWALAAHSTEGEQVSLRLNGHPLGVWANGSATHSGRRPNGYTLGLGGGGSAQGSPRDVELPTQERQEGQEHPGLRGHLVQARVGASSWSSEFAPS
Experimental: (§1) Bruns, R. F. et al., Naunyn-Schmiedeberg's Arch. […] Binding of [^3H]R-N^6-phenylisopropyladenosine. Schwabe, U. et al., Naunyn-Schmiedeberg's Arch. […] (Dupont NEN, Boston, Mass.) to A2A receptors from rat striatal membranes was performed as described. […] All non-radioactive compounds were initially dissolved in DMSO, and diluted with buffer to the final concentration, where the amount of DMSO never exceeded 2%. Incubations were terminated by rapid filtration over Whatman GF/B filters, using a Brandell cell harvester (Brandell, Gaithersburg, Md.). The tubes were rinsed three times with 3 mL buffer each.
(§2) At least six different concentrations of competitor, spanning 3 orders of magnitude adjusted appropriately for the IC50 of each compound, were used. IC50 values, calculated with the nonlinear regression method implemented in (Graph-Pad Prism, San Diego, Calif.), were converted to apparent Ki values as described. Linden, J., J. Cycl. Nucl.

rat A1 receptors (rA1) = target: T4, rat A1 receptors (rA1) (Rattus norvegicus, UniProt P25099); test: Displacement of [3H]R-PIA binding in rat brain (cerebral cortical) membranes; settings: for Ki: read-out: rA1 Ki or IC50
T4 construct: to A1 receptors from rat cerebral cortical membranes; from tissue; host or cells: rat cerebral cortical (brain) membranes
T4 sequence (P25099 1-326): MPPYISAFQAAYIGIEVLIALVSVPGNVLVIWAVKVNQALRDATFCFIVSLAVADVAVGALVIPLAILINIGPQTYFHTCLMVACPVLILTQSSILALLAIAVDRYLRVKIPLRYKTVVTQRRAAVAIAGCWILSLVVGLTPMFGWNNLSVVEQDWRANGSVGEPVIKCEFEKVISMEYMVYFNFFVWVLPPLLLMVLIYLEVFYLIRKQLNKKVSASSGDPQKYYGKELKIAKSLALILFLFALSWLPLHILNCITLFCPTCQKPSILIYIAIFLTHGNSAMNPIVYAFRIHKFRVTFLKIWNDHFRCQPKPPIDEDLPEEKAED
Experimental: as §1, §2

[2] = target: recombinant human A2A receptors (hA2A) (Homo sapiens, UniProt P29274); test: Radioligand binding (125I-ZM241385) at recombinant human A2A receptors in HEK-293 cells
Chain of recombinant human A2A receptors (hA2A) (P29274 whole entry): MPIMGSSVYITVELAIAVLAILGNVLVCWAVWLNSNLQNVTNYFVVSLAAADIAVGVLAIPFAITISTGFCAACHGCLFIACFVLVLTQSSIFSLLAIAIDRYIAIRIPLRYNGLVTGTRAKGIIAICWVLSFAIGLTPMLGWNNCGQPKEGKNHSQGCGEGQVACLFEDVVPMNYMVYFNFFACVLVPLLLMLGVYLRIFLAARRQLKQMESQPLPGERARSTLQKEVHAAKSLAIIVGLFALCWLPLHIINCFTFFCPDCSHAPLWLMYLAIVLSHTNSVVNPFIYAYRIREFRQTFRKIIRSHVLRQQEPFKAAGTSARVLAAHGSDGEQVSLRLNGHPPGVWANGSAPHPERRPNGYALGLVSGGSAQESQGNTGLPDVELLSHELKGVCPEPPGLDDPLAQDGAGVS
Experimental: (§3) The potency of the xanthine derivatives at human A2B receptors was evaluated using two binding assays. […] In order to determine selectivity, the xanthines were evaluated using standard binding assays at A1, A2A, and A3 receptors.

[3] = target: T5, recombinant human A1 receptors (hA1) (Homo sapiens, UniProt P30542); test: Radioligand binding ([3H]CPX) at recombinant human A1 receptors in HEK-293 cells
T5 sequence (P30542 1-326): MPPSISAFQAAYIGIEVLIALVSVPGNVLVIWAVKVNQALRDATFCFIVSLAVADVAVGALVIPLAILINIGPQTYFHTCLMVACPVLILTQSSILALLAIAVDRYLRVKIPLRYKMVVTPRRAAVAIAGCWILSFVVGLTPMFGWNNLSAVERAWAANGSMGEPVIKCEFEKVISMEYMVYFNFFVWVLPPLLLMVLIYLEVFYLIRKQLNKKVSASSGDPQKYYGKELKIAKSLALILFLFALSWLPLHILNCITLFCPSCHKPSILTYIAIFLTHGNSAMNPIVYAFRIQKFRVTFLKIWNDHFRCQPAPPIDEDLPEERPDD
Experimental: as §3

[4] = Table 1, [3H]CGS 21680, rat striatal membranes
[5] = Table 1, [3H]R-PIA, rat brain membranes
[6] = read-out: hA1 Ki, values marked (h), Table 1, recombinant human A1, HEK 293

| Compound | melting point [°C] | Ki (rat A2A receptors (rA2A); Table 2) [nM] | Ki (rat A1 receptors (rA1); Table 2) [nM] | Ki ([1]; Table 2) [nM] | also measured |
| --- | --- | --- | --- | --- | --- |
| CC(=O)c1ccccc1NC(=O)/C=C/c1ccc(-c2nc3c([nH]2)c(=O)n(Cc2ccccc2)c(=O)n3Cc2ccccc2)cc1 (hydrate or solvate) [Compound 37, 8-[4-(2-(2-Acetylphenyl)carbamoyl-trans-vinyl)phenyl]-1,3-dibenzylxanthine] | 308 to 309 | – | – | – | – |
| CCCn1c(=O)c2[nH]c(-c3ccc(OCC(=O)ON4C(=O)CCC4=O)cc3)nc2n(CCC)c1=O [Compound 4b] | – | – | – | – | Ki ([1]; Table 1, [125I]ABOPX, HEK-293): 9.75 ± 4.8 nM; Ki (human A3 receptors (hA3); Table 1, [125I]ABA, HEK-293): 227 nM; Ki (rat A2A receptors (rA2A); [4]): 127 nM; Ki (rat A1 receptors (rA1); [5]): 153 nM |
| O=C(O)COc1ccc(-c2nc3c([nH]2)c(=O)n(Cc2ccccc2)c(=O)n3Cc2ccccc2)cc1 [Compound 7, 8-[4-[(Carboxymethyl)oxy]phenyl]-1,3-dibenzyl-xanthine] | > 310 | – | – | – | Ki ([1]; Table 1, [125I]ABOPX, HEK-293): 1760 nM; rA2A % displacement of specific binding (rat A2A receptors (rA2A); Table 1, at 100,000 nM): 25 ± 3%; Ki (rat A1 receptors (rA1); [5]): 679 ± 190 nM |
| CCCn1c(=O)c2[nH]c(-c3ccc(C=CC(=O)O)cc3)nc2n(CCC)c1=O [Compound 8] | – | – | – | – | Ki ([1]; Table 1, [125I]ABOPX, HEK-293): 60 ± 2 nM; Ki ([2]; read-out: hA2A Ki, values marked (h), Table 1, recombinant human A2A, HEK 293): 190 ± 71 nM; Ki (human A3 receptors (hA3); Table 1, [125I]ABA, HEK-293): 30 ± 14 nM; Ki (rat A2A receptors (rA2A); [4]): 800 nM; Ki [3, 6]: 140 ± 3 nM |
| O=C(O)C=Cc1ccc(-c2nc3c([nH]2)c(=O)n(CC2CCCCC2)c(=O)n3CC2CCCCC2)cc1 [Compound 9] | – | – | – | – | Ki ([1]; Table 1, [125I]ABOPX, HEK-293): 199 ± 52 nM; Ki (human A3 receptors (hA3); Table 1, [125I]ABA, HEK-293): 922 ± 399 nM; Ki [3, 6]: 4890 nM; Ki (rat A1 receptors (rA1); [5]): 602 ± 24 nM |
| O=C(O)/C=C/c1ccc(-c2nc3c([nH]2)c(=O)n(Cc2ccccc2)c(=O)n3Cc2ccccc2)cc1 [Compound 10, 8-(4-(2-Carboxy-trans-vinyl)phenyl)-1,3-dibenzyl-xanthine] | > 310 | – | – | – | Ki ([1]; Table 1, [125I]ABOPX, HEK-293): 469 ± 23 nM; Ki (rat A2A receptors (rA2A); [4]): 4450 nM; Ki (rat A1 receptors (rA1); [5]): 201 ± 23 nM |
| CCCn1c(=O)c2[nH]c(-c3ccc(OCC(N)=O)cc3)nc2n(CCC)c1=O [Compound 11] | – | 76.3 ± 14 | 20 ± 3.8 | – | potency versus the carboxylic acid 4a at A2B receptors ([1]; relative to 4a): equipotent; more potent than the carboxylic acid 4a at A2A receptors (rat A2A receptors (rA2A); relative to 4a): 29 fold; more potent than the carboxylic acid 4a at A1 receptors (rat A1 receptors (rA1); relative to 4a): 3 fold |
| CCCn1c(=O)c2[nH]c(-c3ccc(OCC(=O)NC(c4ccccc4)c4ccccc4)cc3)nc2n(CCC)c1=O [Compound 14, 8-[4-[(Diphenylmethylcarbamoylmethyl)oxy]phenyl]-1,3-di-(n-propyl)xanthine] | 269 to 270 | – | 120 ± 21 | 33.7 ± 17 | rA2A % displacement (rat A2A receptors (rA2A); Table 2, at (1000)): 20 ± 8% |
| CCCn1c(=O)c2[nH]c(-c3ccc(OCC(=O)N(C)c4ccccc4)cc3)nc2n(CCC)c1=O [Compound 16, 8-[4-[(N-Methyl-N-phenylcarbamoylmethyl)oxy]phenyl]-1,3-di-(n-propyl)xanthine] | 215 | 497 ± 250 | 218 ± 80 | 5.42 ± 1.71 | selectivity for human A2B versus rat A1 receptors [1]: 40 fold; selectivity for human A2B versus rat A2A receptors [1]: 92 fold; reduction of affinity by N-methylation ([1]; N-methyl anilide versus anilide, human A2B): 3.7 fold |
| CCCn1c(=O)c2[nH]c(-c3ccc(OCC(=O)N(CC(=O)OCC)CC(=O)OCC)cc3)nc2n(CCC)c1=O [Compound 17, 8-[4-[(N,N-bis(Ethoxycarbonylmethyl)carbamoylmethyl)oxy]-phenyl]-1,3-di-(n-propyl)xanthine] | 225 | 999 ± 144 | 26.8 ± 2.4 | 43.4 ± 8.4 | – |
| CCCn1c(=O)c2[nH]c(-c3ccc(OCC(=O)Nc4ccc(C(C)=O)cc4)cc3)nc2n(CCC)c1=O [Compound 20, 8-[4-[((4-Acetylphenyl)carbamoylmethyl)oxy]phenyl]-1,3-di-(n-propyl)xanthine] | – | 548 ± 183 | 37.6 ± 4 | 1.39 ± 0.3 | selectivity for human A2B versus rat A1 receptors [1]: 27 fold; Ki ([2]; read-out: hA2A Ki or IC50, Table 2): 112 ± 37 nM; Ki (human A3 receptors (hA3); Table 2): 230 ± 23 nM; Ki ([3]; read-out: hA1 Ki or IC50, Table 2): 157 ± 8 nM |
| CCCn1c(=O)c2[nH]c(-c3ccc(OCC(=O)Nc4ccc(C(N)=O)cc4)cc3)nc2n(CCC)c1=O [Compound 22, 8-[4-[((4-Carbamoyl)phenylcarbamoylmethyl)oxy]phenyl]-1,3-di-(n-propyl)xanthine] | > 310 | 683 ± 167 | 10.2 ± 2.5 | 7.75 ± 1.11 | – |
| CCCn1c(=O)c2[nH]c(-c3ccc(OCC(=O)Nc4ccc(C(=O)NC)cc4)cc3)nc2n(CCC)c1=O [Compound 23, 8-[4-[((4-Methylcarbamoyl)phenylcarbamoylmethyl)oxy]phenyl]-1,3-di-(n-propyl)xanthine] | > 310 | 98.1 ± 49.6 | 24.8 ± 1.8 | 3.34 ± 0.51 | – |
| CCCn1c(=O)c2[nH]c(-c3ccc(OCC(=O)Nc4ccc(C(=O)O)cc4)cc3)nc2n(CCC)c1=O [Compound 24, 8-[4-[((4-Carboxy)phenylcarbamoylmethyl)oxy]phenyl]-1,3-di-(n-propyl)xanthine] | > 310 | 220 ± 79 | 145 ± 28 | 16.1 ± 4.7 | – |
| CCCn1c(=O)c2[nH]c(-c3ccc(OCC(=O)Nc4ccc(C)cc4)cc3)nc2n(CCC)c1=O [Compound 25] | – | 126 ± 38 | 17.5 ± 5 | 1.88 ± 0.76 | – |
| CCCn1c(=O)c2[nH]c(-c3ccc(OCC(=O)Nc4ccc(O)cc4)cc3)nc2n(CCC)c1=O [Compound 26] | – | 63.3 ± 20.4 | 5.88 ± 1.06 | 3.71 ± 0.76 | – |
| CC(=O)c1ccccc1NC(=O)/C=C/c1ccc(-c2nc3c([nH]2)c(=O)n(CC2CCCCC2)c(=O)n3CC2CCCCC2)cc1 [Compound 36, 8-[4-(2-(2-Acetylphenyl)carbamoyl-trans-vinyl)phenyl]-1,3-di-(cyclohexylmethyl)xanthine] | 305 | – | – | – | – |
| CC(=O)c1ccccc1NC(=O)COc1ccc(-c2nc3c([nH]2)c(=O)n(Cc2ccccc2)c(=O)n3Cc2ccccc2)cc1 [Compound 38, 8-[4-[((2-Acetylphenyl)carbamoylmethyl)oxy]phenyl]-1,3-dibenzyl-xanthine] | 284 | – | – | – | – |
| CCn1c(=O)c2[nH]c(-c3ccc(OCC(=O)Nc4ccc(C)cc4)cc3)nc2n(CC)c1=O [Compound 39] | – | – | – | – | Ki ([1]; Table 3): 1.78 ± 0.43 nM; Ki (rat A2A receptors (rA2A); Table 3): 71.1 ± 7.7 nM; Ki (rat A1 receptors (rA1); Table 3): 34.9 ± 0.3 nM |
